Experimental data from US20240270737A1, “SMALL MOLECULAR INHIBITORS OF STING SIGNALING COMPOSITIONS AND METHODS OF USE” (STINGINN INC., priority 2021, published 2024).

Test system: STING activation, Cxcl10
Test: STING activation in MEFs stimulated with ISD (qPCR of Cxcl10, Western blot, confocal)
Format: cell-based, mouse
Description: FIG. 1E are photographs showing Western blot analysis in murine fibroblasts (MEFs) treated the same as FIG. 1A, according to an embodiment of the invention;
FIG. 1F are photographs showing confocal analysis in MEFs treated the same as FIG. 1A, according to an embodiment of the invention;
MEFs were treated with W1 and then stimulated with cytoplasmic DNA (ISD) and examined Cxcl10 expression by qPCR and STING-dependent phosphorylation of TBK1 and IRF3.
Mouse embryonic fibroblasts (MEFs) were obtained from E13.5 embryos by a standard procedure. Bone Marrow Derived Macro-phages (BMDM) were isolated from hind-limb femurs of 8-10 weeks old WT and Trex1 KO (TKO) mice. The hematopoietic cells from the bone marrow were cultured in complete DMEM (Invitrogen) including 10 ng/ml of Mouse Recombinant Colony-Stimulating Factor (M-CSF, R&D Systems) for 10 to 14 days.
Quantitative Real time PCR (qPCR) Total RNA were reverse-transcribed using M-MLV Reverse Transcriptase (Promega). Real-time PCR was performed using Taqman Gene Expression Assay (Applied Biosystems) for innate immune genes and inflammatory cytokines.

SMILES: Cc1cc([N+](=O)[O-])ccc1S(=O)(=O)Nc1nc2cc(C(F)(F)F)ccc2[nH]1 [Compound W1, 2-methyl-4-nitro-N-[5-(trifluoromethyl)-1H-1,3-benzodiazol-2-yl]benzene-1-sulfonamide]
- production of STING-inducible cytokine Cxcl10 in response to ISD: dramatically decreased
